According to patent US11576944B2, “Grape extracts and methods relating thereto” (priority 2016, dated 2023):
“Also recorded” adds a separate entry of the source.

What was measured:
[1] = system: MCF7 human ER+ breast tumors; assay: MCF7 ER+ breast tumors in athymic mice, with tamoxifen; assay type: in vivo, mouse; settings: 5 weeks
Protocol: The mammary fat pads of athymic mice were injected with MCF7 human ER+ cells (1×10^6 cells) and tumor growth was measured every third day using a caliper.
The 4th inguinal mammary pads of athymic mice (female, 15-20 g, 5-6 weeks of age) were injected with 1×10^6 actively growing ZR-75-1 or MCF7 human ER+ breast cancer cells. The mice were group housed in cages with HEPA-filtered air on 12-h light/dark cycles and were fed regular rat chow ad libitum. Tumor size was measured twice a week in conscious animals, using a caliper, and tumor volume was calculated using the formula for a semi-ellipsoid (4/3πr^3)/2)]. […] After 7 weeks of treatment for the mice containing ZR-75-1 human ER+ breast tumors or 5 weeks of treatment for the mice containing MCF7 ER+ breast tumors, the mice were sacrificed and the tumors were removed and weighed.

[2] = system: ZR-75-1 human ER+ breast tumors; assay: ZR-75-1 ER+ breast tumors in athymic mice, with tamoxifen; assay type: in vivo, mouse; settings: 7 weeks
Protocol: The mammary fat pads of athymic mice were injected with ZR-75-1 ER+ cells (1×10^6 cells), and tumor growth was measured every third day using a caliper.
Sections were incubated with an antibody to Ki67, a marker of proliferation.
The 4th inguinal mammary pads of athymic mice (female, 15-20 g, 5-6 weeks of age) were injected with 1×10^6 actively growing ZR-75-1 or MCF7 human ER+ breast cancer cells. […] Tumor size was measured twice a week in conscious animals, using a caliper, and tumor volume was calculated using the formula for a semi-ellipsoid (4/3πr^3)/2)]. […] After 7 weeks of treatment for the mice containing ZR-75-1 human ER+ breast tumors or 5 weeks of treatment for the mice containing MCF7 ER+ breast tumors, the mice were sacrificed and the tumors were removed and weighed.

[3] = system: angiotensin II (Ang II)-induced hypertension; assay: Ang II-induced hypertension and cardiac damage in rats; assay type: in vivo, rat; settings: Ang II alone 24 μg/kg/h via osmotic mini-pump, at 4 weeks (from 120.4±2.4)
Protocol: The effect of p-MGE on hypertension and hypertension-induced cardiac damage was measured in rats with angiotensin II (Ang II)-induced hypertension. Sprague-Dawley rats (male, 8-12 weeks of age) were treated for 4 weeks with regular drinking water (Control), p-MGE alone (0.2 mg/mL of total phenolics in their drinking water), Ang II alone (24 μg/kg/h via implanted osmotic mini-pump) or p-MGE and Ang II. For a 250 g rat, this amount of p-MGE corresponds to approximately 20 mg phenolics/kg/day. Administration of p-MGE was initiated 1 week prior to treatment with Ang II. Blood pressure was recorded weekly by tail-cuff plethysmography, at the same time of day by the same individual. […] Scans to quantify cardiac parameters were taken in M mode parasternal short axis view at mid-papillary level, Tissue Doppler in 4 chamber view at the mitral annulus, and pulse wave Doppler in 4 chamber view to measure transmitral inflow. The ejection fraction of the heart and fractional shortening were measured in M mode parasternal short axis view at the mid-papillary level, using the VisualSonics Vevo 2100 High-Resolution Imaging System, as a measure of systolic function. […] Diastolic function was measured as e′, to assess the relaxation of the left ventricle, and E/e′, to assess the filling pressure of the left ventricle. […]

[4] = p-MGE 0.1 mg phenolics/mL drinking water, tamoxifen ~32 mg/kg/d in chow, or both
[5] = p-MGE 0.1 mg phenolics/mL, tamoxifen ~32 mg/kg/d, or both

| Compound | tumor volume / growth [1, 4] | tumor weight [1, 5] | tumor volume / growth [2, 4] | Ki67 positive cells in tumor sections [2, 5] | tumor weight [2, 5] | systolic blood pressure (tail cuff) [3] [mm Hg] |
| --- | --- | --- | --- | --- | --- | --- |
| CC/C(=C(\c1ccccc1)c1ccc(OCCN(C)C)cc1)c1ccccc1 [tamoxifen] | reduced the growth of both ER+ tumors; also recorded: also reduced tumor size | also reduced tumor weight | reduced the growth of both ER+ tumors; also recorded: also reduced tumor size | associated with a reduction in the number of cells which were positive for the proliferation marker Ki67; also recorded: also significantly reduced proliferation | also reduced tumor weight | – |
| angiotensin II (DRVYIHPF; Angiotensin-2; UniProt P01015 25-32, looked up) [Ang II, used to induce hypertension in rats] | – | – | – | – | – | 213.1±6.8 |
